Test results taken from patent publication US6011015A, “Angiotensin II for improving fertilization” (Queen Mary & Westfield College, priority 1994, dated 2000).
Where a name gives a salt, the structure may show the parent alone.

How the values were obtained:
Format in all cases: cell-based
[1] = test system: Human sperm; experiment: Percentage motility of human sperm, counted from video recordings in a Makler chamber
Procedure: Human sperm sample were obtained from 12 volunteers and patients attending the Newham Hospital assisted fertility clinic. Samples were suspended in modified minimum essential medium with Earle's salts (MEM) and glutamine and viewed in a Makler chamber using an Olympus inverted microscope fitted with an Olympus ARTF-2 video camera. Fields were recorded on video tape and percentage motility evaluated at 1 min and 5 min. After mixing with MEM alone (unstimulated controls) or with MEM containing 1 nmole/litre angiotensin II amide.
In practice, rigid use of this definition was rarely necessary as sperm were either completely immotile or progressed freely.
A series of six sperm samples, obtained from the same source as Example 1, were mixed either with unmodified MEM, or MEM containing DuP-753 (1 nmole/l).
Percentage motility was estimated in the same way as in Example 1.
(§1) Effect of Angiotensin II on Sperm Velocity Sperm samples were obtained from the same source as Example 1. One series of samples was kept as controls. To a second series Angiotensin II amide (10 nmole/l) was added. A third series was treated with monoclonal antibody to the AT1, receptor before angiotensin was added.
Sperm samples were obtained from the same source as Example 1. One series of samples was kept as controls. A second series was exposed to angiotensin II (1 μmole/l) for five minutes. A third series was exposed to angiotensin II (1 μmole/l) for 5 minutes and then DuP-753 (1 μmole/l) was added.
The percentage of motile sperm was measured using the same method as was used in Example 1.

[2] = test system: Human sperm; experiment: Forward progressive sperm velocity, timed manually across the Makler chamber grid; settings: Angiotensin II amide (10 nmole/l); FIG. 3(a)
Procedure: as §1
Velocity was measured by timing forwardly progressive sperm traversing the grid on the Makler Chamber and timing them manually.

[3] = test system: Human sperm; experiment: Sperm motility by computer system (VCL and ALH); settings: angiotensin II amide (1 nmole/l) versus unstimulated controls, over 30 minutes
Procedure: Sperm samples were obtained from the same source as Example 1. One series of samples was kept as controls. TO a second series angiotensin II amide (1 nmole/l) was added.
Sperm motility was assayed by using a computer system which measures different aspects of sperm motility, namely curvilinear velocity (VCL) and amplitude of lateral head displacement (ALH).

## CCCCc1nc(Cl)c(CO)n1Cc1ccc(-c2ccccc2-c2nn[nH]n2)cc1 [DuP-753, 2-n-butyl-4-chloro-5-hydroxymethyl-1-[(2'-(1H-tetrazol-5-yl)biphenyl-4-yl)methyl] imidazole, potassium salt, reference compound]
[1]; MEM containing DuP-753 (1 nmole/l), six sperm samples, FIG. 2
  percentage motility relative to the untreated controls: significantly decreased
[1]; angiotensin II (1 μmole/l) for 5 minutes, then DuP-753 (1 μmole/l) added, FIG. 4
  effect on the angiotensin II enhancement of the percentage of motile sperm: generally reduced

## angiotensin II (DRVYIHPF; Angiotensin-2; UniProt P01019 25-32, looked up) [octapeptide hormone of the renin-angiotensin system]
[2]
  forward progressive velocity compared with the untreated controls: significantly stimulated
[1]; MEM containing 1 nmole/litre angiotensin II amide, 12 human sperm samples, FIG. 1(b)
  percentage motility after 5 minutes compared with percentage motility after 1 minute: significantly different
[1]; angiotensin II (1 μmole/l) for five minutes, in most samples, FIG. 4
  percentage of sperm which were motile after 5 minutes compared with the controls: enhanced

## angiotensin II amide
[3]; FIGS. 6 and 8
  curvilinear velocity (VCL): stimulates
[3]; FIGS. 7 and 8
  amplitude of lateral head displacement (ALH): stimulates
